# Measured values reported in patent publication US20230271770A1, “Anti-Viral Pharmaceutical Formulations Administered Via Devices for Lung Targeted Delivery” (priority 2020, published 2023).
# Assay: Estimated HCQ concentration in alveolar fluid (oral tablets, inhalation)
# Design: species or system human
# Protocol: The HCQ molecules in the plasma can penetrate capillaries outside the alveolar membrane to reach the alveolar lining fluid (“ALF”).
# A similar analysis was performed for HCQ administered by inhalation.
smiles,measurement,setting,value
"CCN(CCO)CCCC(C)Nc1ccnc2cc(Cl)ccc12 (centres unmarked) [HCQ, hydroxychloroquine]",estimated concentration of HCQ in alveolar fluid,after administration of HCQ by inhalation,up to 22 μM
same,estimated concentration of HCQ in alveolar fluid,"oral tablets, Day-1 (800 mg dose, after 2nd 400 mg dose)",0.45 µM
same,estimated concentration of HCQ in alveolar fluid,"oral tablets, Day-1 after the 1st 400 mg dose",0.23 µM
same,estimated concentration of HCQ in alveolar fluid,"oral tablets, Day-2",0.67 µM
same,estimated concentration of HCQ in alveolar fluid,"oral tablets, Day-5 (total dose of 2,400 mg)",1.3 µM
